This experiment addresses human ACC2 (Homo sapiens (Human), UniProt O00763). The experiment can be described thus: ACC2 assay: spectrophotometric 384 well assay (coupled lactate dehydrogenase/pyruvate kinase). The format is biochemical. Particulars: hACC2 construct lacking the 128 N-terminal amino acids, 25° C., 340 nm. Here is the method:
Spectrophotometric 384 Well Assay
Malonyl CoA formation by acetyl CoA carboxylases is stoichiometrically linked to the consumption of ATP. ACC2 activity is measured in a […] kinetic method measuring ADP generated during the ACC reaction using a coupled lactate dehydrogenase/pyruvate kinase reaction.
For biological testing, a human ACC2 construct which lacks the 128 amino acids at the N-terminus for increased solubility (nt 385-6966 in Genbank entry AJ575592) is cloned. The protein is then expressed in insect cells using a baculoviral expression system. Protein purification is performed by anion exchange.
All compounds are dissolved in dimethyl sulfoxide (DMSO) to a concentration of 10 mM.
Assay reactions are then carried out in 384-well plates, with hACC2 in an appropriate dilution and at final assay concentrations (f.c.) of 100 mM Tris (pH 7.5), 10 mM trisodium citrate, 25 mM KHCO3, 10 mM MgCl2, 0.5 mg/ml BSA, 3.75 mM reduced L-glutathione, 15 U/ml lactate dehydrogenase, 0.5 mM phosphoenolpyruvate, 15 U/ml pyruvate kinase, compounds at different concentrations at final DMSO concentrations of 1%.
The enzymatic reaction is then started by addition of a mixture of NADH, acetyl Coenzyme A (both […].) and ATP (500 uM f.c.). The decrease of the optical density (slope S) is then determined at 25° C. at a wavelength of 340 nm over 15 minutes in a spectrophotometric reader.
Each assay microtiter plate contains wells with vehicle instead of compound as controls for the non-inhibited enzyme (100% CTL; ‘HIGH’) and wells without acetyl-CoA as controls for non-specific NADH degradation (0% CTL; ‘LOW’).
The slope S is used for calculation of % CTL=(S(compound)−S(‘LOW’))/(S(‘HIGH’)−S(‘LOW’))*100. Compounds will give values between 100% CTL (no inhibition) and 0% CTL (complete inhibition).
For IC50 value determination, the sample slope in the presence of the test compound after subtraction of the low controls (S(compound)−S(‘LOW’)) are used.
An IC50 value is derived from the compound slopes at different dosages after subtraction of the low controls (S(compound)-S(‘LOW’)) by non-linear regression curve fitting (equation y=(A+((B−A)/(1+((C/x)^D))))).
Chain of human ACC2 (O00763 129-2458): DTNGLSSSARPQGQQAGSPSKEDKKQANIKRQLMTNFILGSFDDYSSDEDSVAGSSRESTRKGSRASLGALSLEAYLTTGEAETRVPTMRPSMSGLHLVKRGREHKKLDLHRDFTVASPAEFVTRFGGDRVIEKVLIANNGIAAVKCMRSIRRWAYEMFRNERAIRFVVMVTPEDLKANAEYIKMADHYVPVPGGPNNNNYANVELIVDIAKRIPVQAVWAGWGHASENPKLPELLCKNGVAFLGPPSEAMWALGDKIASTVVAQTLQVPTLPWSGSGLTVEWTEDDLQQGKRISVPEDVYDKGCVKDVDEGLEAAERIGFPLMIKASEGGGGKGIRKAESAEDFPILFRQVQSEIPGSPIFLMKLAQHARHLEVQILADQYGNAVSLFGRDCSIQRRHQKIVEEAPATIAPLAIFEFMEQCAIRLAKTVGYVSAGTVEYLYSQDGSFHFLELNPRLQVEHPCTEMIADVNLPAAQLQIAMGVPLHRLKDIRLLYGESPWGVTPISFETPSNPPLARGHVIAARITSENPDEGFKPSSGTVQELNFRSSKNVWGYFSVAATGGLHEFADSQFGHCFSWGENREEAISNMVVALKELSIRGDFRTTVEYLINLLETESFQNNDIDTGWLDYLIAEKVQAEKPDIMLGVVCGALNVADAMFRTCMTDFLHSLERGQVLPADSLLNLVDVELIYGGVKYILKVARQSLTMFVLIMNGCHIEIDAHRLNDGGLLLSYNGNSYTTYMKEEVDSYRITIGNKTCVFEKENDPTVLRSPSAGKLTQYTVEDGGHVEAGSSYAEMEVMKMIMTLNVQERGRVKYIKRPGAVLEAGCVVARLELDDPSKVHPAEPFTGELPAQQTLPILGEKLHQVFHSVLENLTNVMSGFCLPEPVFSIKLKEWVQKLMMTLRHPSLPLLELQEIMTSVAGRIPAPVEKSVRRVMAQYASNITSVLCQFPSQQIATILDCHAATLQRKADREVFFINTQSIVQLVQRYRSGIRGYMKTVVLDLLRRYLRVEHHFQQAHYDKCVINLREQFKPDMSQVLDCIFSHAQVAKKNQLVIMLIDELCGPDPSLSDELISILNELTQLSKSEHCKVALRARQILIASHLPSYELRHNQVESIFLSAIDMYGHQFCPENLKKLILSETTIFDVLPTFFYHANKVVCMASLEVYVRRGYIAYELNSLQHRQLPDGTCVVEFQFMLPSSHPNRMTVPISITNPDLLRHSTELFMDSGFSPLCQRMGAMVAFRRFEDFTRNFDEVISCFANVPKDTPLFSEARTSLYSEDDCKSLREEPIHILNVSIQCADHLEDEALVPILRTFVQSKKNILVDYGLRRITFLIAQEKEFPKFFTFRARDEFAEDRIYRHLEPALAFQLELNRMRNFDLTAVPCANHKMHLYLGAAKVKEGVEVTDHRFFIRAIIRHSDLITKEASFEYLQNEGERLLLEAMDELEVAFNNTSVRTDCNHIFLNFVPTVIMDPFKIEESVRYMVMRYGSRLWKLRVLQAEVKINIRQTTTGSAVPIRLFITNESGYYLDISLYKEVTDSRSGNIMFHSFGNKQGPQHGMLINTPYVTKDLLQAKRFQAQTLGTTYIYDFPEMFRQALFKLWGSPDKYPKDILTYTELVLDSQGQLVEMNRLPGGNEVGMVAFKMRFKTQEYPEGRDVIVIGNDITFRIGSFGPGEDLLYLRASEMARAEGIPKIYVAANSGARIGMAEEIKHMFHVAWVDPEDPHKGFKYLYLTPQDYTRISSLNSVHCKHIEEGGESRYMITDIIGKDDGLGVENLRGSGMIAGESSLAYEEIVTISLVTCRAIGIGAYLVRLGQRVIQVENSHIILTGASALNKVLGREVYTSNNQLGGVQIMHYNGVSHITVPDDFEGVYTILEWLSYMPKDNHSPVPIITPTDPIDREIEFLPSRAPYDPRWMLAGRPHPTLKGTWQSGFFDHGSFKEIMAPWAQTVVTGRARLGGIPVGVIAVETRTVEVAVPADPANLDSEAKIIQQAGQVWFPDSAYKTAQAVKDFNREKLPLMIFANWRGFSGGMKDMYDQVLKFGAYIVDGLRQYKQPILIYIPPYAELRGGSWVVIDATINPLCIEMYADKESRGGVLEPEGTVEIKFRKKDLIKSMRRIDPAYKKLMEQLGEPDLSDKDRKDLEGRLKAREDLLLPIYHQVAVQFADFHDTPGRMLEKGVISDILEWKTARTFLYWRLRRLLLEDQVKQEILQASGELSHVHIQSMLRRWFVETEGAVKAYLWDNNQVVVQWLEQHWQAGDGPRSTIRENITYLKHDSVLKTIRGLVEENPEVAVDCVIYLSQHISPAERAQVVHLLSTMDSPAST
Consider `C[C@H](NC(=O)Cc1cnccn1)c1ccc(CN2Cc3ccc(OCC4CC4)cc3C(F)C2)cc1` (some centres unmarked) [Example 3.037], for which 60 nM corresponded to half-maximal inhibition (IC50).

`CC(=O)N[C@@H](C)c1ccc(CN2Cc3ccc(OCC4CC4(F)F)cc3C(O)C2)cc1` (some centres unmarked) [Example 1.091] displayed an IC50 of 130 nM.

In turn, `COc1c(OCCC(F)(F)F)ccc2c1CCN(Cc1ccc([C@H](C)NC(C)=O)cc1)C2` [Example 1.066] registered an IC50 of 111 nM.

`CC(=O)Nc1nc(C)c(C(=O)N[C@@H](C)c2ccc(CN3CCc4cc(OCC5CC5(F)F)ccc4C3)cc2)s1` (some centres unmarked) [Example 2.020]: inhibition was half-maximal at 28 nM (IC50).

Take `C[C@H](NC(=O)[C@H]1C[C@H](F)C1)c1ccc(CN2CCc3cc(OCC4CC4(F)F)ccc3C2)cc1` (some centres unmarked) [Example 3.022]: half-maximal inhibition (IC50) was put at 28 nM.

The compound `C[C@H](NC(=O)[C@@H]1CC[C@H](NC(=O)OC(C)(C)C)C1)c1ccc(CN2Cc3ccc(OCC4CC4)cc3C(F)C2)cc1` (some centres unmarked) [Example 3.050] displayed an IC50 of 306 nM.

The compound `C[C@H](NC(=O)C1CCC1)c1ccc(CN2Cc3ccc(OCC4CC4)cc3C(F)C2)cc1` (some centres unmarked) [Example 3.042] had an IC50 of 72 nM.

As to `CCC(=O)N[C@@H](C)c1ccc(CN2Cc3ccc(OCC4CC4)cc3C(O)C2)cc1` (some centres unmarked) [Example 3.039], the IC50 is 136 nM.

`C[C@H](NC(=O)CC#N)c1ccc(CN2CCc3cc(OCC4CC4(F)F)ccc3C2)cc1` (stereo partly drawn) [Example 3.001, 2-Cyano-N—((S)-1-{4-[6-(2,2-difluoro-cyclopropylmethoxy)-3,4-dihydro-1H-isoquinolin-2-ylmethyl]-phenyl}-ethyl)-acetamide] yielded an IC50 of 35 nM.

The compound `COc1c(OC2CCC2)ccc2c1CCN(Cc1ccc([C@H](C)NC(C)=O)cc1)C2` [Example 1.070] had a 50% inhibitory concentration (IC50) of 145 nM.

`COc1cccc2c1CCN(Cc1ccc([C@H](C)NC(=O)c3cncs3)cc1)C2` [Example 2.001, Thiazole-5-carboxylic acid {(S)-1-[4-(5-methoxy-3,4-dihydro-1H-isoquinolin-2-ylmethyl)-phenyl]-ethyl}-amide]: the IC50 worked out at 135 nM.

For `CC(=O)NC(C)c1ccc(CN2CCc3cc(OCCCF)ccc3C2)cc1` (centres unmarked) [Example 1.013], half-maximal inhibition (IC50) was put at 146 nM.

`CCC(=O)N[C@@H](C)c1ccc(CN2CCc3c(cccc3OC3CCC3)C2)cc1` [Example 2.013]: the IC50 is 166 nM.

For the compound `CC(=O)Nc1nc(C)c(C(=O)N[C@@H](C)c2ccc(CN3Cc4ccc(OCC5CC5(F)F)cc4C(F)C3)cc2)s1` (some centres unmarked) [Example 3.032], the IC50 was 58 nM.

Compound `C[C@H](NC(=O)CC#N)c1ccc(CN2Cc3ccc(OCC4CC4)cc3C(O)C2)cc1` (some centres unmarked) [Example 3.051] came in with an IC50 of 604 nM.

Compound `C[C@H](NC(=O)C1CC1)c1ccc(CN2CCc3c(cccc3C(F)(F)F)C2)cc1` [Example 2.007] gave an IC50 of 104 nM.

For `CCC(=O)Nc1nc(C)c(C(=O)N[C@@H](C)c2ccc(CN3Cc4ccc(OCC5CC5)cc4C(F)C3)cc2)s1` (some centres unmarked) [Example 3.025], the IC50 worked out at 26 nM.

As for `CC(=O)Nc1nc(C)c(C(=O)N[C@@H](C)c2ccc(CN3Cc4ccc(OCC5CC5(F)F)cc4C(O)C3)cc2)s1` (some centres unmarked) [Example 2.035], inhibition was half-maximal at 259 nM (IC50).

The compound `CC(=O)NC(C)c1ccc(CN2CCc3cc(OCC(C)C)ccc3C2)cc1` (centres unmarked) [Example 1.009] had an IC50 of 102 nM.

For the compound `C[C@H](NC(=O)C1CC(F)C1)c1ccc(CN2Cc3ccc(OCC4CC4(F)F)cc3C(O)C2)cc1` (some centres unmarked) [Example 2.036], the IC50 came to 408 nM.

Take `COc1c(OCCC2CC2)ccc2c1CCN(Cc1ccc([C@H](C)NC(=O)C3CC3)cc1)C2` [Example 1.058]: half-maximal inhibition (IC50) required 137 nM.

Consider `CCNC(=O)N[C@@H](C)c1ccc(CN2Cc3ccc(OCC4CC4)cc3C(O)C2)cc1` (some centres unmarked) [Example 5.006], for which inhibition was half-maximal at 872 nM (IC50).

`COc1cccc2c1CCN(Cc1ccc([C@H](C)NC(=O)c3cn[nH]c3)cc1)C2` [Example 2.004]: the midpoint of inhibition, the IC50, lay at 184 nM.

In turn, `COc1c(OCCC(F)F)ccc2c1CCN(Cc1ccc([C@H](C)NC(C)=O)cc1)C2` [Example 1.072] came in with an IC50 of 141 nM.

For `CC(=O)NC(C)c1ccc(CN2CCc3c(cccc3OCC3CC3(F)F)C2)cc1` (centres unmarked) [Example 1.008], the IC50 was found to be 492 nM.

`CC(=O)NC(C)c1ccc(CN2CCc3cc(C(F)F)ccc3C2)cc1` (centres unmarked) [Example 1.028] gave an IC50 of 789 nM.

In turn, `C[C@H](NC(=O)c1cncs1)c1ccc(CN2CCc3c(cccc3OC3CCC3)C2)cc1` [Example 2.014] returned an IC50 of 144 nM.

Compound `C[C@H](NC(=O)CC#N)c1ccc(CN2Cc3ccc(OCC4CC4(F)F)cc3C(F)C2)cc1` (some centres unmarked) [Example 3.029] displayed an IC50 of 45 nM.

Compound `C[C@H](NC(=O)C1CC1)c1ccc(CN2CCc3cc(OCCCF)ccc3C2)cc1` [Example 2.016] registered an IC50 of 299 nM.

In turn, `C[C@H](O)C(=O)N[C@@H](C)c1ccc(CN2Cc3ccc(OCC4CC4)cc3C(F)C2)cc1` (some centres unmarked) [Example 3.060] gave an IC50 of 132 nM.

`CC(=O)NC(C)c1ccc(CN2CCc3c(ccc4c3OCCO4)C2)cc1` (centres unmarked) [Example 1.029]: the IC50 turned out to be 228 nM.

For `CC(=O)NC(C)c1ccc(CN2CCc3c(ccc(OCC4CCC4)c3Cl)C2)cc1` (centres unmarked) [Example 1.033], 44 nM corresponded to half-maximal inhibition (IC50).

The compound `C[C@H](NC(=O)C1CC1)c1ccc(CN2CCc3cc(OCC4CC(F)(F)C4)ccc3C2)cc1` [Example 2.015] had an IC50 of 38 nM.

`CC(=O)NC(C)c1ccc(CN2CCc3c(cccc3OCC3CC3)C2)cc1` (centres unmarked) [Example 1.006] displayed an IC50 of 878 nM.

In turn, `COc1c(OCC2CC2)ccc2c1CCN(Cc1ccc(C(C)NC(C)=O)cc1)C2` (centres unmarked) [Example 1.023] registered an IC50 of 133 nM.

Consider `CC(=O)NC(C)c1ccc(CN2CCc3c(ccc(OCCC(F)(F)F)c3Cl)C2)cc1` (centres unmarked) [Example 1.034], for which half-maximal inhibition (IC50) was put at 54 nM.

`CC(=O)N[C@@H](C)c1ccc(CN2Cc3ccc(OCC4CC4(F)F)cc3C(F)C2)cc1` (some centres unmarked) [Example 1.092] gave an IC50 of 16 nM.

Compound `COC(=O)N[C@@H](C)c1ccc(CN2Cc3ccc(OCC4CC4)cc3C(O)C2)cc1` (some centres unmarked) [Example 5.008] registered an IC50 of 369 nM.

`C[C@H](NC(=O)C1CC1)c1ccc(CN2CCc3c(ccc(OCC4CC4(F)F)c3Cl)C2)cc1` (some centres unmarked) [Example 1.049] showed an IC50 of 63 nM.

As to `CC(=O)NC(C)c1ccc(CN2CCc3cc(OC4CCC4)ccc3C2)cc1` (centres unmarked) [Example 1.020], the IC50 is 110 nM.

On to `CC(=O)N[C@@H](C)c1ccc(CN2Cc3ccc(OC(C)C)cc3C(F)C2)cc1` (some centres unmarked) [Example 1.100], for which the midpoint of inhibition, the IC50, lay at 30 nM.

For `CC(=O)N[C@@H](C)c1ccc(CN2CC(=O)c3cc(OCC4CC4(F)F)ccc3C2)cc1` (some centres unmarked) [Example 7.009], the IC50 was found to be 50 nM.

For `CCC(=O)Nc1nc(C)c(C(=O)N[C@@H](C)c2ccc(CN3Cc4ccc(OCC5CC5)cc4C(O)C3)cc2)s1` (some centres unmarked) [Example 3.040], the IC50 was found to be 189 nM.

The compound `C[C@H](NC(=O)Cc1cncnc1)c1ccc(CN2Cc3ccc(OCC4CC4(F)F)cc3C(F)C2)cc1` (some centres unmarked) [Example 3.03] had an IC50 of 95 nM.

`C[C@H](NC(=O)CC#N)c1ccc(CN2CC(=O)c3cc(OCC4CC4)ccc3C2)cc1` [Example 2.043] gave an IC50 of 428 nM.

`C[C@H](NC(=O)C1COCCN1)c1ccc(CN2Cc3ccc(OCC4CC4)cc3C(F)C2)cc1` (some centres unmarked) [Example 3.057] displayed an IC50 of 357 nM.

Take `Cc1nocc1C(=O)N[C@@H](C)c1ccc(CN2CCc3cc(OCC4CC4(F)F)ccc3C2)cc1` (some centres unmarked) [Example 3.020]: it took 33 nM to reach half-maximal inhibition (IC50).

The compound `CC(O)C(=O)N[C@@H](C)c1ccc(CN2CCc3cc(OCC4CC4)ccc3C2)cc1` (some centres unmarked) [Example 2.021] registered an IC50 of 168 nM.

For the compound `C[C@H](NC(=O)[C@H]1CCC(=O)N1)c1ccc(CN2Cc3ccc(OCC4CC4)cc3C(F)C2)cc1` (some centres unmarked) [Example 3.053], half-maximal inhibition (IC50) was put at 213 nM.

In the case of `CC(C)COc1ccc2c(c1)CCN(Cc1ccc([C@H](C)NC(=O)C3CC3)cc1)C2` [Example 2.019], the IC50 was 57 nM.

`C[C@H](NC(=O)c1cncs1)c1ccc(CN2CCc3cc(OCC4CC4(F)F)ccc3C2)cc1` (some centres unmarked) [Example 3.019] gave an IC50 of 28 nM.

`C[C@H](NC(=O)C1CC1)c1ccc(CN2Cc3ccc(OCC4CC4)cc3C(F)C2)cc1` (some centres unmarked) [Example 1.059] registered an IC50 of 58 nM.

The compound `C[C@H](NC(=O)CO)c1ccc(CN2CCc3cc(OCC4CC4)ccc3C2)cc1` [Example 2.023] displayed an IC50 of 82 nM.

With `CNC(=O)N[C@@H](C)c1ccc(CN2CCc3cc(OCC4CC4(F)F)ccc3C2)cc1` (some centres unmarked) [Example 5.002], the IC50 amounted to 59 nM.

Take `CC(=O)NC(C)c1ccc(CN2CCc3c(ccc(OCC(F)F)c3Cl)C2)cc1` (centres unmarked) [Example 1.038]: half-maximal inhibition (IC50) was put at 218 nM.

For `C[C@H](NC(=O)CO)c1ccc(CN2CCc3cc(OC[C@@H]4CC4(F)F)ccc3C2)cc1` [Example 2.025], inhibition was half-maximal at 89 nM (IC50).

Source of the values: patent US9340510B2, “Tetrahydroisoquinoline derivatives, pharmaceutical compositions and uses thereof” (Boehringer Ingelheim International GmbH, priority 2014, dated 2016).
